From US8329726B2, “Inhibitors of VEGF receptor and HGF receptor signaling” (MethylGene Inc., priority 2005, dated 2012)
Read-outs that look alike come from different tables or passages of the source.

Legend:
[1] = biological target: T1, recombinant human c-Met/HGF receptor (Homo sapiens, UniProt P08581); assay: In vitro receptor tyrosine kinase assay (DELFIA), c-Met/HGF receptor; format: biochemical
T1 construct: His tag (pBlueBacHis2A vector); made in house; host or cells: Hi-5 cells (Trichoplusia ni), baculovirus
T1 sequence (P08581 1078-1337): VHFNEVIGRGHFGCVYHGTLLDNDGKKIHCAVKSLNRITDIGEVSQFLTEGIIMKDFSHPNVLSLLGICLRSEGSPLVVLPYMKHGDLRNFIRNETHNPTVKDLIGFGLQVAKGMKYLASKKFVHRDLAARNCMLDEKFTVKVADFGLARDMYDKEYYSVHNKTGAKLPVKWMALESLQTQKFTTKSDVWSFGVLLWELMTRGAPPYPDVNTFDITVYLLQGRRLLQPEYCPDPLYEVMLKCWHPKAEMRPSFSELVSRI
Procedure: Cell pellets were frozen at −80° C. until purification was performed.
The coated plates were washed and stored at 4° C. […] After incubation, the kinase reactions were quenched with EDTA and the plates were washed.

[2] = biological target: T2, VEGF receptor KDR (Homo sapiens, UniProt P35968); assay: In vitro receptor tyrosine kinase assay (DELFIA), VEGF receptor KDR; format: biochemical
T2 construct: made in house; host or cells: Sf9 cells (Spodoptera frugiperda), baculovirus
T2 sequence (P35968 806-1356): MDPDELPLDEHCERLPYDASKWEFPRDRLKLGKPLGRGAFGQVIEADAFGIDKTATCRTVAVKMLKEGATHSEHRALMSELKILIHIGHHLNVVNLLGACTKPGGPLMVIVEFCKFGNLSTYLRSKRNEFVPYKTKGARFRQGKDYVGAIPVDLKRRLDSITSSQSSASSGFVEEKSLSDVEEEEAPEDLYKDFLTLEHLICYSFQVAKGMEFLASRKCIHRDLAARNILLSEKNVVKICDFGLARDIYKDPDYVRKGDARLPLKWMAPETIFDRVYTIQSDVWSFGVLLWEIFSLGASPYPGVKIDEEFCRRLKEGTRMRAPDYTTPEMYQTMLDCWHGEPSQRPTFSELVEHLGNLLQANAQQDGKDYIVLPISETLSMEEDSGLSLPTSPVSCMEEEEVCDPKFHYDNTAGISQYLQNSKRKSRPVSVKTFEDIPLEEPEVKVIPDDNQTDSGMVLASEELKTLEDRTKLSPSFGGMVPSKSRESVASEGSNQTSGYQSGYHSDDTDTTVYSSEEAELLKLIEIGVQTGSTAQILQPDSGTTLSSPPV

[3] = biological target: T3, TPR-MET fusion protein (Homo sapiens, UniProt P08581); assay: C-Met phosphorylation cell-based assay (MNNGHOS cells)
T3 construct: the MET gene on chromosome 7 encoding for its cytoplasmic region catalytic domain; host or cells: MNNGHOS cells; the other entry of the earlier key: TPR (P12270, Nucleoprotein TPR)
T3 sequence (P08581 with tags, fused parts or gaps): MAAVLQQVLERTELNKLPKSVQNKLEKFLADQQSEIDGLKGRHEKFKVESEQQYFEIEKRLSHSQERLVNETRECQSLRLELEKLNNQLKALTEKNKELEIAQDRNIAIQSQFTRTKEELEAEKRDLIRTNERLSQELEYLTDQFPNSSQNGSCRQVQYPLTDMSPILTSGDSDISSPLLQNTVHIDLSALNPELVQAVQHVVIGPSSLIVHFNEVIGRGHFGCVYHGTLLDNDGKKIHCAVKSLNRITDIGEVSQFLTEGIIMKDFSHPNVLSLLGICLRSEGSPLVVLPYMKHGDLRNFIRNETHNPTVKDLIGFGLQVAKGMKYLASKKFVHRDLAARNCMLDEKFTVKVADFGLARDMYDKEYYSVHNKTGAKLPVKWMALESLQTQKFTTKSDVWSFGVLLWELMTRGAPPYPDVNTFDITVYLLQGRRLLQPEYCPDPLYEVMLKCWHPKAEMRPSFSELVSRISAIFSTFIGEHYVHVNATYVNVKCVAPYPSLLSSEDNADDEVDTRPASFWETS
Text: C-Met Phosphorylation Cell-Based Assay
Signal was quantitated by densitometry on Alpha-Imager.

[4] = tested on: A549; assay: In vivo solid tumor disease model, A549; parameters: species or system female athymic CD1 mice; details: 14 days
[5] = tested on: MV4-11; assay: In vivo solid tumor disease model, MV4-11; parameters: species or system female athymic CD1 mice; details: MV4-11, 20 mg/kg p.o. once daily, 14 days
[6] = tested on: U87MG; assay: In vivo solid tumor disease model, U87MG; parameters: species or system female athymic CD1 mice; details: 75 mg/kg p.o. once daily, 14 days
Text: In Vivo Solid Tumor Disease Model
This test measures the capacity of compounds to inhibit solid tumor growth.
Tumor xenografts are established in the flank of female athymic CD1 mice (Charles River Inc.), by subcutaneous injection of 1×10^6 U87, A431 or SKLMS cells/mouse. Once established, tumors are then serially passaged s.c. in nude mice hosts. Tumor fragments from these host animals are used in subsequent compound evaluation experiments. For compound evaluation experiments female nude mice weighing approximately 20 g are implanted s.c. by surgical implantation with tumor fragments of ˜30 mg from donor tumors. When the tumors are approximately 100 mm^3 in size (˜7-10 days following implantation), the animals are randomized and separated into treatment and control groups. Each group contains 6-8 tumor-bearing mice, each of which is ear-tagged and followed individually throughout the experiment.
Mice are weighed and tumor measurements are taken by calipers three times weekly, starting on Day 1. These tumor measurements are converted to tumor volume by the well-known formula […]. The experiment is terminated when the control tumors reach a size of approximately 1500 mm^3. […] In addition to tumor volumes, body weight of animals is monitored twice weekly for up to 3 weeks. […]

[7] = tested on: Colo265; assay: In vivo solid tumor disease model, Colo265; parameters: species or system female athymic CD1 mice; details: Colo265, 30 mg/kg i.p. once daily, 14 days
[8] = tested on: A549; assay: A549 wound healing inhibition (HGF dependent migration); format: cell-based; details: Homo sapiens, A549 cells, read-out: A549 WOUND HEALING INHIB IC50
Text: (§1) HGF has well known activity in terms of inducing scattering and migration (wound healing) (Wells et al., Cell Motil Cytoskeleton. 2005 November 62(3):180-94; Miura et al., Urology 2001 December 58(6):1064-9; Nishimura et al., Int J Urol. 1998 May 5(3):276-81; Wang et al., Mol Cancer Ther. 2003 November; 2(11):1085-92; and Christensen et al., Cancer Res. 2003 Nov. 1; 63(21):7345-55).

[9] = tested on: DU145; assay: DU145 scattering inhibition (HGF dependent scattering); format: cell-based; details: Homo sapiens, DU-145; HGF dependent scattering, DU145 cells; read-out: DU145 SCATTERING INHIB IC50
Text: as §1

[10] = recombinant c-Met IC, 10 uM ATP, DELFIA, read-out: C-Met (IC50)
[11] = GST-VEGFR2 806-1356, 0.6 uM ATP, DELFIA, read-out: VEGFR (IC50)
[12] = MNNGHOS cells, 3 hours treatment, immunoblot, read-out: Y1230-34-35 TPR-MET phosphorylation (IC50)

SMILES	IC50 [1, 10] [nM]	IC50 [2, 11] [nM]	IC50 [3, 12] [nM]	also measured
Cn1ccnc1-c1cc2nccc(Oc3ccc(NC(=O)CC(=O)Nc4ccncc4)cc3F)c2s1 [Compound 34, N^1-{3-Fluoro-4-[2-(1-methyl-1H-imidazol-2-yl)-thieno[3,2-b]pyridin-7-yloxy]-phenyl}-N^3-pyridin-4-yl-malonamide]	365	19	> 5000	–
Cn1ccnc1-c1cc2nccc(Oc3ccc(NC(=O)CC(=O)Nc4cccnc4)cc3F)c2s1 [Compound 40, N^1-(3-Fluoro-4-(2-(1-methyl-1H-imidazol-2-yl)thieno[3,2-b]pyridin-7-yloxy)phenyl)-N^3-(pyridine-3-yl)malonamide]	268	13	~500	–
CN(C)Cc1cccc(-c2cc3nccc(Oc4ccc(NC(=O)CC(=O)Nc5ccccc5F)cc4F)c3s2)c1 [drawing 462]	–	–	–	Tumor Growth Inhibition (%) ([4]; A549, 20 mg/kg p.o. once daily): b (% TGI in the range of 50-74)
CN1CCN(CCN(C)Cc2ccc(-c3cc4nccc(Oc5ccc(NC(=O)CC(=O)Nc6ccccc6)cc5F)c4s3)cc2)CC1 [drawing 464]	–	–	–	Tumor Growth Inhibition (%) [5]: b (% TGI in the range of 50-74)
Cn1cncc1-c1cc2nccc(Oc3ccc(NC(=O)CC(=O)Nc4ccccc4)cc3F)c2s1 [Compound 5e, N^1-(3-Fluoro-4-(2-(1-methyl-1H-imidazol-5-yl)thieno[3,2-b]pyridin-7-yloxy)phenyl)-N^3-phenylmalonamide]	–	5	–	IC50 [1]: 16 nM; IC50 [3]: 155 nM
CCn1cnc(-c2cc3nccc(Oc4ccc(NC(=O)C5(C(=O)Nc6ccccc6)CC5)cc4F)c3s2)c1 [drawing 463]	–	–	–	Tumor Growth Inhibition (%) ([4]; A549, 40 mg/kg p.o. once daily): b (% TGI in the range of 50-74)
CCn1cnc(-c2cc3nccc(Oc4ccc(NC(=O)CC(=O)Nc5ccccc5F)cc4F)c3s2)c1 [drawing 461]	–	–	–	Tumor Growth Inhibition (%) [6]: b (% TGI in the range of 50-74)
CCn1cnc(-c2cc3nccc(Oc4ccc(NC(=O)CC(=O)Nc5ccccc5)cc4F)c3s2)c1 [drawing 460]	–	–	–	Tumor Growth Inhibition (%) [6]: b (% TGI in the range of 50-74)
CN(C(=O)CC(=O)Nc1ccc(Oc2ccnc3cc(-c4cn(CCN5CCCC5)cn4)sc23)c(F)c1)c1ccccc1	–	–	–	Tumor Growth Inhibition (%) [7]: b (% TGI in the range of 50-74)
CN(C(=O)CC(=O)Nc1ccc(Oc2ccnc3cc(-c4nccn4C)sc23)c(F)c1)c1ccccc1 [Compound 32, N^1-(3-Fluoro-4-(2-(1-methyl-1H-imidazol-2-yl)thieno[3,2-b]pyridin-7-yloxy)phenyl)-N^3-methyl-N^3-phenylmalonamide]	109	5	> 5000	–
CCn1cc(-c2cc3nccc(Oc4ccc(NC(=O)CC(=O)Nc5ccccc5OC)cc4F)c3s2)nc1CN(C)C	–	–	–	IC50 ([1]; read-out: CMET IC50): < 50 nM; IC50 ([2]; read-out: VEGFR IC50): < 50 nM; IC50 [8]: < 1000 nM; IC50 [9]: < 1000 nM
Cn1cnc(-c2cc3nccc(Oc4ccc(NC(=O)C5CCN(c6ccc(F)cc6)C5=O)cc4F)c3s2)c1 (centres unmarked)	–	–	–	IC50 ([1]; read-out: CMET IC50): < 50 nM; IC50 ([2]; read-out: VEGFR IC50): < 50 nM; IC50 [8]: < 1000 nM; IC50 [9]: < 1000 nM
COc1ccccc1NC(=O)CC(=O)Nc1ccc(Oc2ccnc3cc(-c4c[nH]cn4)sc23)c(F)c1	–	–	–	IC50 ([1]; read-out: CMET IC50): 50 to 250 nM; IC50 ([2]; read-out: VEGFR IC50): 50 to 250 nM; IC50 [8]: < 1000 nM; IC50 [9]: < 1000 nM
COc1ccccc1NC(=O)CC(=O)Nc1ccc(Oc2ccnc3cc(-c4ccc(OCCCN(C)C)nc4)sc23)c(F)c1	–	–	–	IC50 ([1]; read-out: CMET IC50): 50 to 250 nM; IC50 ([2]; read-out: VEGFR IC50): 250 to 500 nM; IC50 [8]: 1000 to 5000 nM; IC50 [9]: 1000 to 5000 nM
Cn1cnc(-c2cc3nccc(Oc4ccc(NC(=O)C5CCN(c6cccnc6)C5=O)cc4F)c3s2)c1 (centres unmarked)	–	–	–	IC50 ([1]; read-out: CMET IC50): 250 to 500 nM; IC50 ([2]; read-out: VEGFR IC50): 250 to 500 nM; IC50 [8]: 1000 to 5000 nM; IC50 [9]: 1000 to 5000 nM

The next lines start with results.

IC50 [1, 10] [nM]	IC50 [2, 11] [nM]	IC50 [3, 12] [nM]	SMILES	also measured
31	5	28	Cn1ccnc1-c1cc2nccc(Oc3ccc(NC(=O)CC(=O)Nc4ccccc4F)cc3F)c2s1 [Compound 30a, N^1-(3-Fluoro-4-(2-(1-methyl-1H-imidazol-2-yl)thieno[3,2-b]pyridin-7-yloxy)phenyl)-N^3-(2-fluorophenyl)malonamide]	–
19	3	8	Cn1cnc(-c2cc3nccc(Oc4ccc(NC(=O)CC(=O)Nc5ccccc5)cc4F)c3s2)c1 [Compound 5c, N^1-{3-Fluoro-4-[2-(1-methyl-1H-imidazol-4-yl)thieno[3,2-b]pyridin-7-yloxy]-phenyl}-N^3-phenylmalonamide]	–
52	4	40	Cn1ccnc1-c1cc2nccc(Oc3ccc(NC(=O)CC(=O)Nc4ccccc4)cc3F)c2s1 [Compound 5b, N^1-(3-Fluoro-4-(2-(1-methyl-1H-imidazol-2-yl)thieno[3,2-b]pyridin-7-yloxy)phenyl)-N^3-phenylmalonamide]	–
42	5	~200	COc1ccccc1NC(=O)CC(=O)Nc1ccc(Oc2ccnc3cc(-c4nccn4C)sc23)c(F)c1 [Compound 28a, N^1-(3-Fluoro-4-(2-(1-methyl-1H-imidazol-2-yl)thieno[3,2-b]pyridin-7-yloxy)phenyl)-N^3-(2-methoxyphenyl)malonamide]	–
40	13	590	COc1ccccc1NC(=O)CC(=O)Nc1ccc(Oc2ccnc3cc(-c4cncn4C)sc23)c(F)c1 [Compound 28c, N^1-(3-Fluoro-4-(2-(1-methyl-1H-imidazol-5-yl)thieno[3,2-h]pyridin-7-yloxy)phenyl)-N^3-(2-methoxyphenyl)malonamide]	–
40	4	~2000	O=C(CC(=O)Nc1ccc(Oc2ccnc3cc(C(=O)N4CCCC4)sc23)c(F)c1)Nc1ccccc1 [Compound 5f, N^1-(3-Fluoro-4-(2-(pyrrolidine-1-carbonyl)thieno[3,2-b]pyridin-7-yloxy)phenyl)-N^3-phenylmalonamide]	–
